Measured values as given in publication PMC12621043, “Un-LOK-ing a New Approach for Conformational Selective Targeting of STK10 (LOK)” (ACS Medicinal Chemistry Letters, 2025).

Molecular target: T1, EPHB1A (Homo sapiens, UniProt P54762)
T1 construct: purchased in-house DSF kinase panel (SGC-style construct names; the trailing letter is the construct ID)
T1 sequence (P54762 602-896): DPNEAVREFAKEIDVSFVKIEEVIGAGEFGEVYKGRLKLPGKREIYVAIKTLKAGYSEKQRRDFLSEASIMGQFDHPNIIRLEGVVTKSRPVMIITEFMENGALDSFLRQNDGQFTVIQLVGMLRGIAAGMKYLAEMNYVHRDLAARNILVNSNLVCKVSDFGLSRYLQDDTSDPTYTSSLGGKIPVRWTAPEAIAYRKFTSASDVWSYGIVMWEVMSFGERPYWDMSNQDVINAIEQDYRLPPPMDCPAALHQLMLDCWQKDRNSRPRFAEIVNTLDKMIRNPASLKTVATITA
Experiment: DSF Tm panel
Format: binding
Conditions: 10 μM compound

Compound | ΔTm at 10 µM
Cc1ccc(F)cc1CNC(=O)Nc1ccc2cc1OCCOCCNc1ccn3ncc-2c3n1 [compound 26] | 0.3 °C
O=C(NCc1ccccc1C(F)(F)F)Nc1ccc2cc1OCCOCCNc1ccn3ncc-2c3n1 [compound 27] | 0.3 °C
O=C(NCc1ccc(C(F)(F)F)cc1)Nc1ccc2cc1OCCOCCNc1ccn3ncc-2c3n1 [compound 28] | 0.5 °C
COc1ccccc1CNC(=O)Nc1ccc2cc1OCCOCCNc1ccn3ncc-2c3n1 [compound 29] | 0.1 °C
COc1cccc(CNC(=O)Nc2ccc3cc2OCCOCCNc2ccn4ncc-3c4n2)c1 [compound 30] | 0.2 °C
COc1ccc(CNC(=O)Nc2ccc3cc2OCCOCCNc2ccn4ncc-3c4n2)cc1 [compound 31] | 0.4 °C

More lines, now with the values ahead:

ΔTm at 10 µM | Compound
0.3 °C | COc1ccc(CNC(=O)Nc2ccc3cc2OCCOCCNc2ccn4ncc-3c4n2)cc1F [compound 32]
0.5 °C | COc1cc(CNC(=O)Nc2ccc3cc2OCCOCCNc2ccn4ncc-3c4n2)ccc1F [compound 33]
0.1 °C | C[C@H](NC(=O)Nc1ccc2cc1OCCOCCNc1ccn3ncc-2c3n1)c1ccccc1 [compound 34]

Molecular target: T2, FECHHSB (Homo sapiens, UniProt P22830)
T2 construct: purchased in-house DSF kinase panel (SGC-style construct names; the trailing letter is the construct ID)
T2 sequence (P22830 55-423): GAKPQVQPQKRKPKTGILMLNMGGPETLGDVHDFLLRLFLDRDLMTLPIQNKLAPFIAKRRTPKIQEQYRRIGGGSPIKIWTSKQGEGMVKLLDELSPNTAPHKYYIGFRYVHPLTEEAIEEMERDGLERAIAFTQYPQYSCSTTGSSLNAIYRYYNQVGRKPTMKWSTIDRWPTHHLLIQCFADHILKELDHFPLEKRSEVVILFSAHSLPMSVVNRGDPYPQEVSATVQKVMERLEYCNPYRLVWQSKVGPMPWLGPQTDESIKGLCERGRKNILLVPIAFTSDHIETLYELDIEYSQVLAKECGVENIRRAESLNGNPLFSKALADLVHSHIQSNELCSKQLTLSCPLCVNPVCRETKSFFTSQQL
Experiment: DSF Tm panel
Format: binding
Conditions: 10 μM compound

Compound | ΔTm at 10 µM
COc1ccccc1CNC(=O)Nc1ccc2cc1OCCOCCNc1ccn3ncc-2c3n1 [compound 29] | -3.1 °C
COc1cccc(CNC(=O)Nc2ccc3cc2OCCOCCNc2ccn4ncc-3c4n2)c1 [compound 30] | -3.8 °C

Molecular target: T3, NQO2A (Homo sapiens, UniProt P16083)
T3 construct: purchased in-house DSF kinase panel (SGC-style construct names; the trailing letter is the construct ID)
T3 sequence (P16083 1-231): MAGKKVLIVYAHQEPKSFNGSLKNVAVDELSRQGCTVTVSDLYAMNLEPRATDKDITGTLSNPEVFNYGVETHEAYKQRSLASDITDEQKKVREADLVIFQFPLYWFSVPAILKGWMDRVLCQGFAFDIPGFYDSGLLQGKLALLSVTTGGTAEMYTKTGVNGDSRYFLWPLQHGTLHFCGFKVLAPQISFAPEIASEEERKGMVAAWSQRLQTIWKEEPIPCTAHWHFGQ
Experiment: DSF Tm panel
Format: binding
Conditions: 10 μM compound

Compound | ΔTm at 10 µM
Cc1ccc(F)cc1CNC(=O)Nc1ccc2cc1OCCOCCNc1ccn3ncc-2c3n1 [compound 26] | -1.5 °C
O=C(NCc1ccccc1C(F)(F)F)Nc1ccc2cc1OCCOCCNc1ccn3ncc-2c3n1 [compound 27] | -4.1 °C
O=C(NCc1ccc(C(F)(F)F)cc1)Nc1ccc2cc1OCCOCCNc1ccn3ncc-2c3n1 [compound 28] | -2.7 °C
COc1ccccc1CNC(=O)Nc1ccc2cc1OCCOCCNc1ccn3ncc-2c3n1 [compound 29] | -0.5 °C
COc1cccc(CNC(=O)Nc2ccc3cc2OCCOCCNc2ccn4ncc-3c4n2)c1 [compound 30] | -0.5 °C
COc1ccc(CNC(=O)Nc2ccc3cc2OCCOCCNc2ccn4ncc-3c4n2)cc1 [compound 31] | -0.6 °C

More lines, now with the values ahead:

ΔTm at 10 µM | Compound
-2.8 °C | COc1ccc(CNC(=O)Nc2ccc3cc2OCCOCCNc2ccn4ncc-3c4n2)cc1F [compound 32]
-1.5 °C | COc1cc(CNC(=O)Nc2ccc3cc2OCCOCCNc2ccn4ncc-3c4n2)ccc1F [compound 33]
-0.5 °C | C[C@H](NC(=O)Nc1ccc2cc1OCCOCCNc1ccn3ncc-2c3n1)c1ccccc1 [compound 34]

Molecular target: T4, TLK1A (Homo sapiens, UniProt Q9UKI8)
T4 construct: purchased in-house DSF kinase panel (SGC-style construct names; the trailing letter is the construct ID)
T4 sequence (Q9UKI8 456-734): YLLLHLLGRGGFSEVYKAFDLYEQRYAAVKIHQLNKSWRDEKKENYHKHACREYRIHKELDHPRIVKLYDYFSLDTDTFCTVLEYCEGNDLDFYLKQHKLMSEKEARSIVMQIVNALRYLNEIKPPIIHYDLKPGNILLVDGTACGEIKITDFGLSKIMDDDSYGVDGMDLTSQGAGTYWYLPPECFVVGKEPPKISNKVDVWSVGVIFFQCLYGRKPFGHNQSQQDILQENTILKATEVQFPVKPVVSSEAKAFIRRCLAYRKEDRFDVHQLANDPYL
Experiment: DSF Tm panel
Format: binding
Conditions: 10 μM compound

Compound | ΔTm at 10 µM
Cc1ccc(F)cc1CNC(=O)Nc1ccc2cc1OCCOCCNc1ccn3ncc-2c3n1 [compound 26] | 0.9 °C
O=C(NCc1ccccc1C(F)(F)F)Nc1ccc2cc1OCCOCCNc1ccn3ncc-2c3n1 [compound 27] | 1.3 °C
O=C(NCc1ccc(C(F)(F)F)cc1)Nc1ccc2cc1OCCOCCNc1ccn3ncc-2c3n1 [compound 28] | 1.6 °C
COc1ccccc1CNC(=O)Nc1ccc2cc1OCCOCCNc1ccn3ncc-2c3n1 [compound 29] | 0.4 °C
COc1cccc(CNC(=O)Nc2ccc3cc2OCCOCCNc2ccn4ncc-3c4n2)c1 [compound 30] | 0.7 °C
COc1ccc(CNC(=O)Nc2ccc3cc2OCCOCCNc2ccn4ncc-3c4n2)cc1 [compound 31] | 1.1 °C

Now from value to compound:

ΔTm at 10 µM | Compound
1.2 °C | COc1ccc(CNC(=O)Nc2ccc3cc2OCCOCCNc2ccn4ncc-3c4n2)cc1F [compound 32]
0.9 °C | COc1cc(CNC(=O)Nc2ccc3cc2OCCOCCNc2ccn4ncc-3c4n2)ccc1F [compound 33]
0.4 °C | C[C@H](NC(=O)Nc1ccc2cc1OCCOCCNc1ccn3ncc-2c3n1)c1ccccc1 [compound 34]

Molecular target: T5, AURKBA (Homo sapiens, UniProt Q96GD4)
T5 construct: purchased in-house DSF kinase panel (SGC-style construct names; the trailing letter is the construct ID)
T5 sequence (Q96GD4 whole entry): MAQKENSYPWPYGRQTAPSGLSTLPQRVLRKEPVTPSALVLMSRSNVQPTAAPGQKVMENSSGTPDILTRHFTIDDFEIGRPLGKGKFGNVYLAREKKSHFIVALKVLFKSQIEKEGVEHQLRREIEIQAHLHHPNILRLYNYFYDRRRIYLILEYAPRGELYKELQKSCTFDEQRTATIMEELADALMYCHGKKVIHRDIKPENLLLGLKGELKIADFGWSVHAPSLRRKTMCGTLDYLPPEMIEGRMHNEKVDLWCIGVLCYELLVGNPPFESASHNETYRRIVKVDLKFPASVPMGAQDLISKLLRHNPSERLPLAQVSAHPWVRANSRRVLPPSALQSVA
Experiment: DSF Tm panel
Format: binding
Conditions: 10 μM compound

Compound | ΔTm at 10 µM
Cc1ccc(F)cc1CNC(=O)Nc1ccc2cc1OCCOCCNc1ccn3ncc-2c3n1 [compound 26] | 7.8 °C
O=C(NCc1ccccc1C(F)(F)F)Nc1ccc2cc1OCCOCCNc1ccn3ncc-2c3n1 [compound 27] | 8.6 °C
O=C(NCc1ccc(C(F)(F)F)cc1)Nc1ccc2cc1OCCOCCNc1ccn3ncc-2c3n1 [compound 28] | 9 °C
COc1ccccc1CNC(=O)Nc1ccc2cc1OCCOCCNc1ccn3ncc-2c3n1 [compound 29] | 6.6 °C
COc1cccc(CNC(=O)Nc2ccc3cc2OCCOCCNc2ccn4ncc-3c4n2)c1 [compound 30] | 7.3 °C
COc1ccc(CNC(=O)Nc2ccc3cc2OCCOCCNc2ccn4ncc-3c4n2)cc1 [compound 31] | 7.6 °C

The next lines start with the values.

ΔTm at 10 µM | Compound
7.9 °C | COc1ccc(CNC(=O)Nc2ccc3cc2OCCOCCNc2ccn4ncc-3c4n2)cc1F [compound 32]
9.1 °C | COc1cc(CNC(=O)Nc2ccc3cc2OCCOCCNc2ccn4ncc-3c4n2)ccc1F [compound 33]
7.1 °C | C[C@H](NC(=O)Nc1ccc2cc1OCCOCCNc1ccn3ncc-2c3n1)c1ccccc1 [compound 34]

Molecular target: T6, EPHA4A (Homo sapiens, UniProt P54764)
T6 construct: purchased in-house DSF kinase panel (SGC-style construct names; the trailing letter is the construct ID)
T6 sequence (P54764 621-882): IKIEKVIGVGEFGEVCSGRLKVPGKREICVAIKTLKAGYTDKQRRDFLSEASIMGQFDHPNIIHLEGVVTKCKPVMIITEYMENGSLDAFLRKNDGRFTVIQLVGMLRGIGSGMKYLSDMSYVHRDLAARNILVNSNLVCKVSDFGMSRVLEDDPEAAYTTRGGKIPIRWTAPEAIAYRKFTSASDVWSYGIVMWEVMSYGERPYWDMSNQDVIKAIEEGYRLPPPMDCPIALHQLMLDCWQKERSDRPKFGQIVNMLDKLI
Experiment: DSF Tm panel
Format: binding
Conditions: 10 μM compound

Compound | ΔTm at 10 µM
Cc1ccc(F)cc1CNC(=O)Nc1ccc2cc1OCCOCCNc1ccn3ncc-2c3n1 [compound 26] | 0.3 °C
O=C(NCc1ccccc1C(F)(F)F)Nc1ccc2cc1OCCOCCNc1ccn3ncc-2c3n1 [compound 27] | 0.3 °C
O=C(NCc1ccc(C(F)(F)F)cc1)Nc1ccc2cc1OCCOCCNc1ccn3ncc-2c3n1 [compound 28] | 0.5 °C
COc1ccccc1CNC(=O)Nc1ccc2cc1OCCOCCNc1ccn3ncc-2c3n1 [compound 29] | 0.3 °C
COc1cccc(CNC(=O)Nc2ccc3cc2OCCOCCNc2ccn4ncc-3c4n2)c1 [compound 30] | 0.3 °C
COc1ccc(CNC(=O)Nc2ccc3cc2OCCOCCNc2ccn4ncc-3c4n2)cc1 [compound 31] | 0.4 °C

Now from value to compound:

ΔTm at 10 µM | Compound
0.4 °C | COc1ccc(CNC(=O)Nc2ccc3cc2OCCOCCNc2ccn4ncc-3c4n2)cc1F [compound 32]
0.4 °C | COc1cc(CNC(=O)Nc2ccc3cc2OCCOCCNc2ccn4ncc-3c4n2)ccc1F [compound 33]
0.3 °C | C[C@H](NC(=O)Nc1ccc2cc1OCCOCCNc1ccn3ncc-2c3n1)c1ccccc1 [compound 34]

Molecular target: T7, MSSK1A (Homo sapiens, UniProt Q9UPE1)
T7 construct: purchased in-house DSF kinase panel (SGC-style construct names; the trailing letter is the construct ID)
T7 sequence (Q9UPE1 79-565): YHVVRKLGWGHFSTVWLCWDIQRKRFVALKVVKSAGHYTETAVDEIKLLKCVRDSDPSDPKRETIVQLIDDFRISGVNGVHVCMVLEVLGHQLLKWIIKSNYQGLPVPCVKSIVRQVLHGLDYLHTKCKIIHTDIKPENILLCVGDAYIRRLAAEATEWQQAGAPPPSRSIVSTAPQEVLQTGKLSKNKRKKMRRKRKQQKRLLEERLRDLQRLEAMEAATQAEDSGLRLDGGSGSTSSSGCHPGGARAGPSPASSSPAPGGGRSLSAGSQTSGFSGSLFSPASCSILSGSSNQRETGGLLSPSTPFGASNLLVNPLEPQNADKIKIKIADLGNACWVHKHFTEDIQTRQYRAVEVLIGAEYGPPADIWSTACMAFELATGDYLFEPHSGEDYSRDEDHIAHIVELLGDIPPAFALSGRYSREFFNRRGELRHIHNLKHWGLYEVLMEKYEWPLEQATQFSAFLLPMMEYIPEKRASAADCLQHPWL
Experiment: DSF Tm panel
Format: binding
Conditions: 10 μM compound

Compound | ΔTm at 10 µM
Cc1ccc(F)cc1CNC(=O)Nc1ccc2cc1OCCOCCNc1ccn3ncc-2c3n1 [compound 26] | 0.4 °C
O=C(NCc1ccccc1C(F)(F)F)Nc1ccc2cc1OCCOCCNc1ccn3ncc-2c3n1 [compound 27] | 0.5 °C
O=C(NCc1ccc(C(F)(F)F)cc1)Nc1ccc2cc1OCCOCCNc1ccn3ncc-2c3n1 [compound 28] | 0.3 °C
COc1ccccc1CNC(=O)Nc1ccc2cc1OCCOCCNc1ccn3ncc-2c3n1 [compound 29] | 0.5 °C
COc1cccc(CNC(=O)Nc2ccc3cc2OCCOCCNc2ccn4ncc-3c4n2)c1 [compound 30] | 0.4 °C
COc1ccc(CNC(=O)Nc2ccc3cc2OCCOCCNc2ccn4ncc-3c4n2)cc1 [compound 31] | 0.7 °C

Continued, values first:

ΔTm at 10 µM | Compound
0.4 °C | COc1ccc(CNC(=O)Nc2ccc3cc2OCCOCCNc2ccn4ncc-3c4n2)cc1F [compound 32]
0.4 °C | COc1cc(CNC(=O)Nc2ccc3cc2OCCOCCNc2ccn4ncc-3c4n2)ccc1F [compound 33]
0.4 °C | C[C@H](NC(=O)Nc1ccc2cc1OCCOCCNc1ccn3ncc-2c3n1)c1ccccc1 [compound 34]

Test system: SLK
Experiment: not given
Parameters: method as in Serafim et al.
Conditions: Figure 1, previous published dual STK10/SLK inhibitors, ref Serafim et al.; read-out: SLK cellular IC50; cited from earlier work

Compound | IC50
COc1ccc(CNC(=O)Nc2ccc3cc2OCCOCCNc2ccn4ncc-3c4n2)cc1 [compound 31] | 700 nM
